Assay results published in patent US6979747B2, “Antioxidants, preparation processes and their uses” (Centre National de la Recherche Scientifique (CNRS), priority 1999, dated 2005).

System: HIV-1 LAI
Assay: Antiviral activity in quiescent or PHA-P activated PBMCs infected with HIV-1 LAI
Type: cell-based
Conditions: for decrease of viral replication: PBMCs activated by PHA-P
Description: For some experiments, the PBMCs and the PBLs are activated for 48 h with 1 μg/ml of a mitogen, PHA-P (Difco Laboratories). The PBMCs and the PBLs are cultured in medium A (quiescent) or B (activated). The cells are cultured at 37° C. in an atmosphere saturated with moisture under 5% of CO2. The culture supernatants are removed and the culture media are replaced every three or four days. At each renewal of the culture media, the cell viability is evaluated by coloring with trypan blue or by microscopic observation.
The MDMs were infected with the reference isolate with macrophage tropism, HIV-1/Ba-L. The PBMCs and the PBLs were infected with the reference isolate with lymphocyte tropism HIV-1 LAI. The viral stock were formed by amplifying these strains in vitro using umbilical blood mononucleated cells (UBM(s) preactivated with 1 μg/ml of PHA-P and cultured in medium A supplemented by 20 IU/ml of IL-2. In order to remove the soluble factors, such as cytokines, the culture supernatants were ultracentrifuged at 360 000 g for 5 min, and the pellets were resuspended in RPMI 1640. The viral stocks thus formed were subsequently titred using PBMCs activated with PHA-P. The TCID50s (50% Tissue Culture Infectious Dose) were calculated using the Kärber formula.
A million MDMs were infected with 10 000 TCID50s of the HIV-1/Ba-L strain. This amount of virus corresponds to a multiplicity of infection (m.o.i.) equal to 0.01. The excess of virus is removed 24 h after by washing with cells using RPMI 1640. The PBLs and the PBMCs were infected with 10 000 TCID50s of the HIV-1 LAI strain (moi=0.01). The cells were washed at the end of the second day of infection.
The viral replication is measured by assaying the RT activity in the culture supernatants according to the technique described by F. Rey et al. (Biochem. Biophys. Res. Comm., 1984, 121, 126-133). The radioactivity incorporated during the extension of the complementary strand of a poly-rA synthetic matrix in the presence of an oligo-dT12-18 primer and of a radiolabeled substrate, [^3H-methyl]thymidine-5′-triphosphate ([^3H]TPP), makes it possible to assay the enzymatic activity of RT. 400 μl of supernatant are ultracentrifuged at 360 000 g for 5 min. The RT is released by lysis of the viral pellet in 20 μl of NTE-Triton (100 mM NaCl, 10 mM Tris, 1 mM EDTA, 0.1% Triton X-100). These 20 μl are subsequently incubated with 40 μl of the following reaction mixture: 62.5 mM Tris, pH 7.8; 25 mM KCl; 6.25 mM MgCl2; 1.25 mM dithiothreitol (DTT); 2.5×10^−3 ODU oligo-dT12-18 and poly-rA, 5.55×10^−3 TBq {^3H]TTP. After one hour at 37° C., the enzymatic reaction is halted and the newly synthesized strands are precipitated for 20 min at 4° C. by the addition of 1 ml of sodium pyrophosphate (NaPP), of 50 μl of yeast DNA (0.1 mg/ml in 5% trichluoroacetic acid (TCA)), and of 4 ml of 20% TCA. The mixture is filtered using a cellulose acetate membrane (Millipore) which retains the radiolabeled poly-dT chains. The filter is washed using 20 ml of 5% TCA and the residual water is removed by addition of 25 μl of 70% ethanol. The filter is dried in an oven for 10 minutes at 80° C. and is then introduced into vials containing 8 ml of liquid scintillant. The β radioactivity is quantified by means of a scintillation counter (Packard Bell). The results are expressed in pM of [^3H]-TMP incorporated/h/ml of supernatant or, more simply, in cpm/h/ml.
The PBMCs, quiescent or activated by PHA-P, were infected by the reference strain with lymphocyte tropism HIV-1 LAI. All the culturings were carried out in parallel and the drugs were maintained throughout the culturing.

Compound: CC(=O)N[C@@H](CS)C(=O)NCCSC(C)=O [I-152, N-(N-acetyl-L-cysteinyl)-S-acetylcysteamine]
- inhibition at 125 µM (Human immunodeficiency virus 1, PBMC, quiescent PBMCs, 125 μM, read-out: inhibition of viral replication): 88%
- inhibition at 250 µM (Human immunodeficiency virus 1, PBMC, quiescent PBMCs, 250 μM, read-out: inhibition of viral replication): 97%
- decrease of viral replication (125 μM): 25%
- decrease of viral replication (250 μM): 42%
